Data taken from US9809623B2, “α4β7 peptide monomer and dimer antagonists” (Protagonist Therapeutics, Inc., priority 2014, dated 2017).
Read-outs that look alike come from different tables or passages of the source. Numbered stars: 1 amine (or outer) side, 2 acyl side, 3 side chain; on linkers, the order of the positions; unused ones are H or OH. Bridge positions count the residues as written; N and C are the ends. Square brackets hold non-standard residues; d marks the D form. Peptide text beside a SMILES is read from it. I, II: the chains in the order shown. ξ: configuration not given here. Phe(4-COOH) = N[C@@H](Cc1ccc(C(=O)O)cc1)C(=O)O; Phe(4-tBu) = CC(C)(C)c1ccc(C[C@H](N)C(=O)O)cc1; Bip = N[C@@H](Cc1ccc(-c2ccccc2)cc1)C(=O)O; 1Nal = N[C@@H](Cc1cccc2ccccc12)C(=O)O; Diglycolyl = O=C(COCC(=O)[*:2])[*:1]; NMeR = CN[C@@H](CCCNC(=N)N)C(=O)O; β3hE = N[C@@H](CCC(=O)O)CC(=O)O; Thr(3ξ) = CC(O)[C@H](N)C(=O)O; NMeK = CN[C@@H](CCCCN)C(=O)O; Pen = CC(C)(S)[C@H](N)C(=O)O; dNMeK = CN[C@H](CCCCN)C(=O)O

Target: T1, α4β7 (Mus musculus, UniProt P26011+Q00651)
T1 construct: host or cells: TK1 mouse T cells
Experiment: α4β7 Cell Adhesion Assay (Mouse), TK1 cells
Format: cell-based
Procedure: TK1 cells (ATCC # ATCC-CRL-2396) were cultured in RPMI 1640 with 2 mM L-glutamine adjusted to contain 1.5 g/L sodium bicarbonate, 4.5 g/L glucose, 10 mM HEPES, and 1.0 mM sodium pyruvate (ATCC#30-2001) and supplemented with 0.1 mM non-essential amino acids, (ATCC #30-2116) 0.05 mM 2-mercaptoethanol (Invitrogen #21985) and 10% serum (Fetal Bovine Serum, Invitrogen #16140-071), and Penicillin-Streptomycin (Invitrogen #15140-122) at 100 units of penicillin and 100 μg of streptomycin per ml. The cells were washed two times in DMEM medium (ATCC #30-2002) supplemented with 0.1% BSA, 10 mM HEPES pH 7 and 1 mM MnCl2. The cells were re-suspended in supplemented DMEM medium at a density of 4×10^6 cells/ml.
A Nunc MaxiSorp plate was coated with Recombinant human MAdCAM-1 Fc Chimera (R&D #6065-MC) at 200 ng per well in 100 μl per well in 1×PBS and incubated at 4° C. overnight. The solution was then removed by shaking, blocked with 250 ul per well PBS containing 1% BSA, and incubated at 37° C. for 1 hr. The solution was removed by shaking. DATK 32 (anti-mouse α4β7) and peptides were diluted by serial dilution in a final volume of 50 ul per well (2× concentration). To each well, 50 ul of cells (200,000 cells) are added and the plate is incubated at 37° C., 5% CO2 for 30-45 min to allow cell adhesion. The plate was manually washed three times with supplemented DMEM, 100 ul per wash. After the final wash, 100 ul/well of supplemented DMEM and […] of MTT reagent (ATTC cat#30-1010K) was added to each well. Wells were incubated at 37° C. with 5% CO2 for 2-3 hrs until purple precipitate was visible. 100 μl of Detergent Reagent (ATTC cat#30-1010K) was added to each well. The plate was then wrapped with Para film to prevent evaporation, and left overnight at room temperature in the dark. The plate was shaken for 5 min and the absorbance at 570 nm was measured. To calculate the dose response, the absorbance value of control wells not containing cells was subtracted from each test well.

[1] = Table 3-B, Potency (α4β7), range classes, read-out: α4β7 cell(MU) IC50

T1 sequence (Q00651 34-1039 limits assumed): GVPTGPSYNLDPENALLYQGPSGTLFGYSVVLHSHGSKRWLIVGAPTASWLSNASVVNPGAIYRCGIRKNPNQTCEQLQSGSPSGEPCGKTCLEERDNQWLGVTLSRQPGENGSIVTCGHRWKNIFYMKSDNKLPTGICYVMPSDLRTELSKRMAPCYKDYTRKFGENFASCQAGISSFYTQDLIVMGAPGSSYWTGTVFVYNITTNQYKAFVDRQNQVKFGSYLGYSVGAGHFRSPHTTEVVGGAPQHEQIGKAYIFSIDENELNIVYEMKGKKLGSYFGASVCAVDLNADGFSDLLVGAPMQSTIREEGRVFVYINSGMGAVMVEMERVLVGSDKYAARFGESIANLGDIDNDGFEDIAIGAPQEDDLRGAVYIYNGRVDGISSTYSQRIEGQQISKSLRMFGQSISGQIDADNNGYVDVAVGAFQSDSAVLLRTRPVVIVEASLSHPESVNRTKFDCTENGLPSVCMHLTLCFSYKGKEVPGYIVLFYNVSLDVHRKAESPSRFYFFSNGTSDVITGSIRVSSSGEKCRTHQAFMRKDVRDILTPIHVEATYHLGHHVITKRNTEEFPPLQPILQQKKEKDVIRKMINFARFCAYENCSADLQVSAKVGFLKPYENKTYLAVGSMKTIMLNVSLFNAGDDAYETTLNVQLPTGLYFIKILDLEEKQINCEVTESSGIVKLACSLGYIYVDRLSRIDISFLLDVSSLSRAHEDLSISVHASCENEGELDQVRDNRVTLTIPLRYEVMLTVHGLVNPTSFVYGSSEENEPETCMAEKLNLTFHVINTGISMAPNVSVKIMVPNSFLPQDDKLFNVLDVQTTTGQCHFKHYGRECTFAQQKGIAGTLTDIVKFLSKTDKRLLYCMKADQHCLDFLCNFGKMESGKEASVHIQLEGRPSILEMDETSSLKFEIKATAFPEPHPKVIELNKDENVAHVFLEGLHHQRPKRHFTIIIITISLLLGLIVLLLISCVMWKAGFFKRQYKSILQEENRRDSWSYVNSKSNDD
T1 sequence (P26011 20-806): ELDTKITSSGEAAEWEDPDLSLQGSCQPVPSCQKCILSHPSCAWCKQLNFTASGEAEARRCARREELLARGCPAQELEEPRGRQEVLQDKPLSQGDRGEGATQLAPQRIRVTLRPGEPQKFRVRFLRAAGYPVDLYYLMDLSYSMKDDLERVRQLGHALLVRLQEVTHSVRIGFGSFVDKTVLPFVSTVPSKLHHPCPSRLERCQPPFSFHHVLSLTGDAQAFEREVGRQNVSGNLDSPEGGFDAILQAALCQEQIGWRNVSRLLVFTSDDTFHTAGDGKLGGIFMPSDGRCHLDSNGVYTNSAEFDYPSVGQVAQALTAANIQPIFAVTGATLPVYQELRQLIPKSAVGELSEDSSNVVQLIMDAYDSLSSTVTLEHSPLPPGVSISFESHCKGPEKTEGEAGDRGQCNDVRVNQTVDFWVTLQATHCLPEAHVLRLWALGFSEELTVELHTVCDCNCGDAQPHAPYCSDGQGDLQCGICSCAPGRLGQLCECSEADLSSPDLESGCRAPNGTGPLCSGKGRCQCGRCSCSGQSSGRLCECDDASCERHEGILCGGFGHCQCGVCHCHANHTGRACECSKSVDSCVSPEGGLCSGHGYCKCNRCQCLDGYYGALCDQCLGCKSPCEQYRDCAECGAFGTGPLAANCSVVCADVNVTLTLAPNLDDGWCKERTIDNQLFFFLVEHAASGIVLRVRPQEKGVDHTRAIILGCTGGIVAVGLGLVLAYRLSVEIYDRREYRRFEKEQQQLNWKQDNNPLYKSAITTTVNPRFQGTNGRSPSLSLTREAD

## CC(=O)N[C@@H]1C(=O)N(C)[C@@H](CCCNC(=N)N)C(=O)N[C@@H](CO)C(=O)N[C@@H](CC(=O)O)C(=O)N[C@@H](C(C)O)C(=O)N[C@@H](CC(C)C)C(=O)N[C@H](C(=O)N[C@@H](Cc2ccc(C(C)(C)C)cc2)C(=O)N[C@@H](CCC(=O)O)CC(=O)N[C@H](CCCCNC(=O)COCC(=O)NCCCC[C@@H](NC(=O)C[C@H](CCC(=O)O)NC(=O)[C@H](Cc2ccc(C(C)(C)C)cc2)NC(=O)[C@H]2NC(=O)[C@H](CC(C)C)NC(=O)[C@H](C(C)O)NC(=O)[C@H](CC(=O)O)NC(=O)[C@H](CO)NC(=O)[C@H](CCCNC(=N)N)N(C)C(=O)[C@@H](NC(C)=O)C(C)(C)SSC2(C)C)C(N)=O)C(N)=O)C(C)(C)SSC1(C)C (stereo partly drawn) [Peptide X, [Ac-Pen-(N-Me-Arg)-Ser-Asp-Thr-Leu-Pen-(Phe(4-tBu))-(β-homoGlu)-(D-Lys)]2-DIG] (I: Ac-[Pen][NMeR]SD[Thr(3ξ)]L[Pen][Phe(4-tBu)][β3hE][dK]-NH2 / II: Ac-[Pen][NMeR]SD[Thr(3ξ)]L[Pen][Phe(4-tBu)][β3hE][dK]-NH2; disulfide I:1-I:7, II:1-II:7; linker I:10-II:10 via Diglycolyl)
Mouse T cell TK1, read-out: IC50 for blocking adhesion of TK1 cell line to MAdCAM-1
  IC50: 0.0005 µM

## CC(=O)N[C@@H]1C(=O)N(C)[C@@H](CCCNC(=N)N)C(=O)N[C@@H](CO)C(=O)N[C@@H](CC(=O)O)C(=O)N[C@@H]([C@@H](C)O)C(=O)N[C@@H](CC(C)C)C(=O)N[C@H](C(=O)N[C@@H](Cc2cccc3ccccc23)C(=O)N[C@@H](CCC(=O)O)C(=O)N(C)[C@H](CCCCNC(=O)COCC(=O)NCCCC[C@H](C(N)=O)N(C)C(=O)[C@H](CCC(=O)O)NC(=O)[C@H](Cc2cccc3ccccc23)NC(=O)[C@H]2NC(=O)[C@H](CC(C)C)NC(=O)[C@H]([C@@H](C)O)NC(=O)[C@H](CC(=O)O)NC(=O)[C@H](CO)NC(=O)[C@H](CCCNC(=N)N)N(C)C(=O)[C@@H](NC(C)=O)C(C)(C)SSC2(C)C)C(N)=O)C(C)(C)SSC1(C)C [compound 44] (I: Ac-[Pen][NMeR]SDTL[Pen][1Nal]E[dNMeK]-NH2 / II: Ac-[Pen][NMeR]SDTL[Pen][1Nal]E[dNMeK]-NH2; disulfide I:1-I:7, II:1-II:7; linker I:10-II:10 via Diglycolyl)
[1]
  IC50: < 0.01 µM

## CC(=O)N[C@@H]1C(=O)N(C)[C@@H](CCCNC(=N)N)C(=O)N[C@@H](CO)C(=O)N[C@@H](CC(=O)O)C(=O)N[C@@H]([C@@H](C)O)C(=O)N[C@@H](CC(C)C)C(=O)N[C@H](C(=O)N[C@@H](Cc2ccc(C(=O)O)cc2)C(=O)N[C@@H](CCC(=O)O)C(=O)N(C)[C@@H](CCCCNC(=O)COCC(=O)NCCCC[C@@H](C(N)=O)N(C)C(=O)[C@H](CCC(=O)O)NC(=O)[C@H](Cc2ccc(C(=O)O)cc2)NC(=O)[C@H]2NC(=O)[C@H](CC(C)C)NC(=O)[C@H]([C@@H](C)O)NC(=O)[C@H](CC(=O)O)NC(=O)[C@H](CO)NC(=O)[C@H](CCCNC(=N)N)N(C)C(=O)[C@@H](NC(C)=O)C(C)(C)SSC2(C)C)C(N)=O)C(C)(C)SSC1(C)C [compound 147] (I: Ac-[Pen][NMeR]SDTL[Pen][Phe(4-COOH)]E[NMeK]-NH2 / II: Ac-[Pen][NMeR]SDTL[Pen][Phe(4-COOH)]E[NMeK]-NH2; disulfide I:1-I:7, II:1-II:7; linker I:10-II:10 via Diglycolyl)
[1]
  IC50: < 0.01 µM

## CC(=O)N[C@@H]1C(=O)N(C)[C@@H](CCCNC(=N)N)C(=O)N[C@@H](CO)C(=O)N[C@@H](CC(=O)O)C(=O)N[C@@H]([C@@H](C)O)C(=O)N[C@@H](CC(C)C)C(=O)N[C@H](C(=O)N[C@@H](Cc2ccc(C(=O)O)cc2)C(=O)N[C@@H](CCC(=O)O)CC(=O)N(C)[C@@H](CCCCNC(=O)COCC(=O)NCCCC[C@@H](C(N)=O)N(C)C(=O)C[C@H](CCC(=O)O)NC(=O)[C@H](Cc2ccc(C(=O)O)cc2)NC(=O)[C@H]2NC(=O)[C@H](CC(C)C)NC(=O)[C@H]([C@@H](C)O)NC(=O)[C@H](CC(=O)O)NC(=O)[C@H](CO)NC(=O)[C@H](CCCNC(=N)N)N(C)C(=O)[C@@H](NC(C)=O)C(C)(C)SSC2(C)C)C(N)=O)C(C)(C)SSC1(C)C [compound 148] (I: Ac-[Pen][NMeR]SDTL[Pen][Phe(4-COOH)][β3hE][NMeK]-NH2 / II: Ac-[Pen][NMeR]SDTL[Pen][Phe(4-COOH)][β3hE][NMeK]-NH2; disulfide I:1-I:7, II:1-II:7; linker I:10-II:10 via Diglycolyl)
[1]
  IC50: < 0.01 µM

## CC(=O)N[C@@H]1C(=O)N(C)[C@@H](CCCNC(=N)N)C(=O)N[C@@H](CO)C(=O)N[C@@H](CC(=O)O)C(=O)N[C@@H]([C@@H](C)O)C(=O)N[C@@H](CC(C)C)C(=O)N[C@H](C(=O)N[C@@H](Cc2ccc(C(C)(C)C)cc2)C(=O)N[C@@H](CCC(=O)O)CC(=O)N(C)[C@@H](CCCCNC(=O)COCC(=O)NCCCC[C@@H](C(N)=O)N(C)C(=O)C[C@H](CCC(=O)O)NC(=O)[C@H](Cc2ccc(C(C)(C)C)cc2)NC(=O)[C@H]2NC(=O)[C@H](CC(C)C)NC(=O)[C@H]([C@@H](C)O)NC(=O)[C@H](CC(=O)O)NC(=O)[C@H](CO)NC(=O)[C@H](CCCNC(=N)N)N(C)C(=O)[C@@H](NC(C)=O)C(C)(C)SSC2(C)C)C(N)=O)C(C)(C)SSC1(C)C [compound 149] (I: Ac-[Pen][NMeR]SDTL[Pen][Phe(4-tBu)][β3hE][NMeK]-NH2 / II: Ac-[Pen][NMeR]SDTL[Pen][Phe(4-tBu)][β3hE][NMeK]-NH2; disulfide I:1-I:7, II:1-II:7; linker I:10-II:10 via Diglycolyl)
[1]
  IC50: < 0.01 µM

## CC(=O)N[C@@H]1C(=O)N(C)[C@@H](CCCNC(=N)N)C(=O)N[C@@H](CO)C(=O)N[C@@H](CC(=O)O)C(=O)N[C@@H]([C@@H](C)O)C(=O)N[C@@H](CC(C)C)C(=O)N[C@H](C(=O)N[C@@H](Cc2ccc(-c3ccccc3)cc2)C(=O)N[C@@H](CCC(=O)O)CC(=O)N(C)[C@@H](CCCCNC(=O)COCC(=O)NCCCC[C@@H](C(N)=O)N(C)C(=O)C[C@H](CCC(=O)O)NC(=O)[C@H](Cc2ccc(-c3ccccc3)cc2)NC(=O)[C@H]2NC(=O)[C@H](CC(C)C)NC(=O)[C@H]([C@@H](C)O)NC(=O)[C@H](CC(=O)O)NC(=O)[C@H](CO)NC(=O)[C@H](CCCNC(=N)N)N(C)C(=O)[C@@H](NC(C)=O)C(C)(C)SSC2(C)C)C(N)=O)C(C)(C)SSC1(C)C [compound 150] (I: Ac-[Pen][NMeR]SDTL[Pen][Bip][β3hE][NMeK]-NH2 / II: Ac-[Pen][NMeR]SDTL[Pen][Bip][β3hE][NMeK]-NH2; disulfide I:1-I:7, II:1-II:7; linker I:10-II:10 via Diglycolyl)
[1]
  IC50: < 0.01 µM

## CC(=O)N[C@@H]1C(=O)N(C)[C@@H](CCCNC(=N)N)C(=O)N[C@@H](CO)C(=O)N[C@@H](CC(=O)O)C(=O)N[C@@H]([C@@H](C)O)C(=O)N[C@@H](CC(C)C)C(=O)N[C@H](C(=O)N[C@@H](Cc2ccc(C(C)(C)C)cc2)C(=O)N[C@@H](CCC(=O)O)CC(=O)O)C(C)(C)SSC1(C)C [compound 152] (Ac-[Pen][NMeR]SDTL[Pen][Phe(4-tBu)][β3hE]-OH; disulfide 1-7)
[1]
  IC50: < 0.01 µM

## CC(=O)N[C@@H]1C(=O)N(C)[C@@H](CCCNC(=N)N)C(=O)N[C@@H](CO)C(=O)N[C@@H](CC(=O)O)C(=O)N[C@@H]([C@@H](C)O)C(=O)N[C@@H](CC(C)C)C(=O)N[C@H](C(=O)N[C@@H](Cc2ccc(C(C)(C)C)cc2)C(=O)N[C@@H](CCC(=O)O)CC(=O)N[C@H](CCCCN)C(N)=O)C(C)(C)SSC1(C)C [compound 153] (Ac-[Pen][NMeR]SDTL[Pen][Phe(4-tBu)][β3hE][dK]-NH2; disulfide 1-7)
[1]
  IC50: 0.01 to 0.025 µM
